# Experimental data as given in patent publication US6713043B2 (priority 1996, dated 2004).
# “Also recorded” adds a separate entry of the source.
# How the values were obtained:
# [1] = in vivo; cited from earlier work
# L. pneumophila [2] = experiment: microbe, parasite or virus in culture; assay type: cell-based, Legionella pneumophila; conditions: for MIC: Legionella pneumophila, 48 h, read-out: MIC (minimum concentration at which no growth occurred)
# L. pneumophila [3] = assay type: cell-based, Legionella pneumophila
# [4] = test system: L. pneumophila in human macrophages; assay type: cell-based, Legionella pneumophila
# F4b [5] = assay type: cell-based, Legionella pneumophila
# P. aeruginosa = assay type: cell-based, Psuedomonas aeruginosa
# L. pneumophila [6] = assay type: cell-based, Legionella pneumophila; remark: listed apart in the source
# F4b in human macrophages = assay type: cell-based, Legionella pneumophila
# L. pneumophila [7] = assay type: cell-based, Legionella pneumophila; remark: listed apart in the source
# F4b [8] = assay type: cell-based, Legionella pneumophila; remark: listed apart in the source
# [9] = test system: L. pneumophila in human monocytes; assay type: cell-based, Legionella pneumophila
# [10] = test system: L. pneumophila infected HL-60 cells; assay type: cell-based, human
# F4b in HL-60 cells = assay type: cell-based, Legionella pneumophila
# HL-60 cells = conditions: human
# [11] = test system: L. pneumophila in HL-60 cells; assay type: cell-based, Legionella pneumophila
# [12] = test system: L. pneumophila in mouse J774 macrophages; assay type: cell-based, Legionella pneumophila
# wild type L. pneumophila = assay type: cell-based, Legionella pneumophila
# F4b [13] = assay type: cell-based, Legionella pneumophila; remark: listed apart in the source
structure (smiles),measurement,setting,value
"Cc1ccc(C)c(OCCCC(C)(C)C(=O)O)c1 [GFZ, Gemfibrozil]",concentration of gemfibrozil used in humans treated for hyperlipidemia,[1],15000 to 30000 ng/mL
same,growth in AYE broth in presence of GFZ,L. pneumophila [2],inhibited L. pneumophila growth
same,MIC,L. pneumophila [2],10 µg/mL
same,inclusion accumulation (EM),L. pneumophila [3],accumulated granules
same,inhibition of intracellular growth (CFU),[4],partially inhibited
same,inclusion accumulation (EM),F4b [5],no apparent difference in the number or size of inclusions
same,susceptibility to GFZ,P. aeruginosa,not susceptible
same,effect on fatty acid profile,L. pneumophila [6],decreased peak areas for several typical L. pneumophila fatty acids
same,inhibition of intracellular growth (CFU),F4b in human macrophages,one log
same,GFZ concentration at which no growth was seen on the CYE plates,L. pneumophila [7],400 µg/mL
same,bacteriocidal or bacteriostatic,L. pneumophila [7],bacteriostatic
same,effect on fatty acid profile,F4b [8],did not affect the fatty acid profile
same,inhibition of intracellular growth (CFU),[9],one log; also recorded: partially inhibited
same,viability of L. pneumophila infected HL-60 cells (MTT reduction),[10],increased viability
same,inhibition of intracellular growth (CFU),F4b in HL-60 cells,one log
same,effect on HL-60 cell viability,HL-60 cells,did not affect HL-60 cell viability
same,inhibition of intracellular growth (CFU),[11],partially inhibited; also recorded: three logs
same,inhibition of intracellular growth (CFU),[12],one log; also recorded: partially inhibited
"CCCN(CCC)S(=O)(=O)c1ccc(C(=O)O)cc1 [Probenecid, probenecid]",MIC,L. pneumophila [2],160 µg/mL
CC(C)(Oc1ccc(Cl)cc1)C(=O)O [clofibric acid],MIC,L. pneumophila [2],125 µg/mL
CCc1cc(C(N)=S)ccn1 [ethionamide],sensitivity of wild type L. pneumophila relative to F4b (zone of inhibition),wild type L. pneumophila,twice as sensitive
NNC(=O)c1ccncc1 [isoniazid],sensitivity (zone of inhibition),F4b [13],sensitive
same,sensitivity (zone of inhibition),wild type L. pneumophila,no sensitivity
